Experiments:
[1] = system: pigweed; test: Test A preemergence; type: in vivo, Amaranthus retroflexus; conditions: 0 to 100 scale (0 no effect, 100 complete control)
In short: (§1)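 For preemergence, seeds were sown in a loam soil-sand blend and given a directed soil spray of test chemical in a non-phytotoxic solvent mixture with surfactant. For postemergence, plants in pots of the same blend were sprayed with the same formulation at the one- to two-leaf stage, 2 to 10 cm tall.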

[2] = system: corn; test: Test A postemergence; type: in vivo, Zea mays; conditions: 0 to 100 scale (0 no effect, 100 complete control), approx. 10 d
In short: as §1

[3] = system: rice; test: Test B flooded paddy test; type: in vivo, Oryza sativa; conditions: 250 g ai/ha, applied to paddy water at 2-leaf stage, visual rating after 13 to 15 d, scale 0 (no effect) to 100 (complete control)
In short: (§2)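 Pots were flooded to 3 cm above the soil at treatment, and compounds were applied directly into the paddy water. That depth was held throughout. After 13 to 15 d in a greenhouse, plants were rated visually against untreated controls.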

[4] = system: ducksalad; test: Test B flooded paddy test; type: in vivo, Heteranthera limosa; conditions: 250 g ai/ha, applied to paddy water at 2-leaf stage, visual rating after 13 to 15 d, scale 0 (no effect) to 100 (complete control)
In short: as §2

[5] = system: barnyardgrass; test: Test B flooded paddy test; type: in vivo, Echinochloa crus-galli; conditions: 250 g ai/ha, applied to paddy water at 2-leaf stage, visual rating after 13 to 15 d, scale 0 (no effect) to 100 (complete control)
In short: as §2

[6] = system: wheat (winter wheat); test: Test C postemergence; type: in vivo, Triticum aestivum
From the text: (§3) Seeds of plant species selected from blackgrass (Alopecurus myosuroides), ryegrass, Italian (Italian ryegrass, Lolium multiflorum), wheat (winter wheat, Triticum aestivum), galium (catchweed bedstraw, Galium aparine), corn (Zea mays), crabgrass, large (large crabgrass, Digitaria sanguinalis), foxtail, giant, (giant foxtail, Setaria faberii), johnsongrass (Sorghum halepense), lambsquarters (Chenopodium album), morningglory (Ipomoea coccinea), nutsedge, yellow (yellow nutsedge, Cyperus esculentus), pigweed (Amaranthus retroflexus), ragweed (common ragweed, Ambrosia elatior), soybean (Glycine max), barnyardgrass (Echinochloa crus-galli), oilseed rape (Brassica napus), waterhemp (common waterhemp, Amaranthus rudis), and velvetleaf (Abutilon theophrasti) were planted into a blend of loam soil and sand and treated preemergence with test chemicals formulated in a non-phytotoxic solvent mixture which included a surfactant. At the same time, plants selected from these crop and weed species and also chickweed (common chickweed, Stellaria media), oat, wild (wild oat, Avena fatua), and kochia (Kochia scoparia), were planted in pots containing Sunshine Redi-Earth® planting medium comprising spaghnum peat moss, vermiculite, starter nutrients and dolomitic limestone and treated with postemergence applications of test chemicals formulated in the same manner. Plants ranged in height from 2 to 18 cm (1- to 4-leaf stage) for postemergence treatments. […] A dash (-) response means no test result.

[7] = system: foxtail, giant; test: Test C postemergence; type: in vivo, Setaria faberii
From the text: as §3

[8] = system: lambsquarters; test: Test C postemergence; type: in vivo, Chenopodium album
From the text: as §3

[9] = system: pigweed; test: Test C postemergence; type: in vivo, Amaranthus retroflexus
From the text: as §3

[10] = system: ragweed; test: Test C postemergence; type: in vivo, Ambrosia elatior
From the text: as §3

[11] = system: soybean; test: Test C postemergence; type: in vivo, Glycine max
From the text: as §3

[12] = system: chickweed; test: Test C postemergence; type: in vivo, Stellaria media
From the text: as §3

[13] = system: oat, wild; test: Test C postemergence; type: in vivo, Avena fatua
From the text: as §3

SMILES | Plant response rating, Pigweed ([1]; 125 g ai/ha) | Plant response rating, Pigweed ([1]; 500 g ai/ha, approx. 10 d) | Plant response rating, Corn ([2]; 125 g ai/ha) | Plant response rating, Corn ([2]; 500 g ai/ha) | Plant response rating, Rice, Flood [3] | Plant response rating, Ducksalad, Flood [4] | Plant response rating, Barnyardgrass, Flood [5] | Plant response rating (scale of 0 to 100 where 0 is no effect and 100 is complete control) ([6]; 31 g ai/ha) | Plant response rating (scale of 0 to 100 where 0 is no effect and 100 is complete control) ([6]; 62 g ai/ha) | Plant response rating (scale of 0 to 100 where 0 is no effect and 100 is complete control) ([6]; 125 g ai/ha) | Plant response rating (scale of 0 to 100 where 0 is no effect and 100 is complete control) ([6]; 250 g ai/ha) | Plant response rating (scale of 0 to 100 where 0 is no effect and 100 is complete control) ([7]; 31 g ai/ha) | Plant response rating (scale of 0 to 100 where 0 is no effect and 100 is complete control) ([7]; 62 g ai/ha) | Plant response rating (scale of 0 to 100 where 0 is no effect and 100 is complete control) ([7]; 125 g ai/ha) | Plant response rating (scale of 0 to 100 where 0 is no effect and 100 is complete control) ([7]; 250 g ai/ha) | Plant response rating (scale of 0 to 100 where 0 is no effect and 100 is complete control) ([8]; 31 g ai/ha) | Plant response rating (scale of 0 to 100 where 0 is no effect and 100 is complete control) ([8]; 62 g ai/ha) | Plant response rating (scale of 0 to 100 where 0 is no effect and 100 is complete control) ([8]; 125 g ai/ha) | Plant response rating (scale of 0 to 100 where 0 is no effect and 100 is complete control) ([8]; 250 g ai/ha) | Plant response rating (scale of 0 to 100 where 0 is no effect and 100 is complete control) ([9]; 31 g ai/ha) | also measured
COc1nc(-c2ccc(Cl)cc2)nn1Cc1ccnc(C(F)(F)F)c1 [Compound 28] | 100 | 100 | 10 | 40 | 30 | 90 | 20 | 0 | 5 | 5 | 10 | 15 | 10 | 10 | 10 | 100 | 80 | 98 | 98 | 95 | Plant response rating (scale of 0 to 100 where 0 is no effect and 100 is complete control) ([9]; 62 g ai/ha): 95; Plant response rating (scale of 0 to 100 where 0 is no effect and 100 is complete control) ([9]; 125 g ai/ha): 98; Plant response rating (scale of 0 to 100 where 0 is no effect and 100 is complete control) ([9]; 250 g ai/ha): 100; Plant response rating (scale of 0 to 100 where 0 is no effect and 100 is complete control) ([10]; 31 g ai/ha): 25; Plant response rating (scale of 0 to 100 where 0 is no effect and 100 is complete control) ([10]; 62 g ai/ha): 25; Plant response rating (scale of 0 to 100 where 0 is no effect and 100 is complete control) ([10]; 125 g ai/ha): 75; Plant response rating (scale of 0 to 100 where 0 is no effect and 100 is complete control) ([10]; 250 g ai/ha): 75; Plant response rating (scale of 0 to 100 where 0 is no effect and 100 is complete control) ([11]; 31 g ai/ha): 45; Plant response rating (scale of 0 to 100 where 0 is no effect and 100 is complete control) ([11]; 62 g ai/ha): 70; Plant response rating (scale of 0 to 100 where 0 is no effect and 100 is complete control) ([11]; 125 g ai/ha): 55; Plant response rating (scale of 0 to 100 where 0 is no effect and 100 is complete control) ([11]; 250 g ai/ha): 60; Plant response rating (scale of 0 to 100 where 0 is no effect and 100 is complete control) ([12]; 31 g ai/ha): 80; Plant response rating (scale of 0 to 100 where 0 is no effect and 100 is complete control) ([12]; 62 g ai/ha): 95; Plant response rating (scale of 0 to 100 where 0 is no effect and 100 is complete control) ([12]; 125 g ai/ha): 90; Plant response rating (scale of 0 to 100 where 0 is no effect and 100 is complete control) ([12]; 250 g ai/ha): 90; Plant response rating (scale of 0 to 100 where 0 is no effect and 100 is complete control) ([13]; 31 g ai/ha): 5; Plant response rating (scale of 0 to 100 where 0 is no effect and 100 is complete control) ([13]; 62 g ai/ha): 5; Plant response rating (scale of 0 to 100 where 0 is no effect and 100 is complete control) ([13]; 125 g ai/ha): 10; Plant response rating (scale of 0 to 100 where 0 is no effect and 100 is complete control) ([13]; 250 g ai/ha): 15
Fc1ccc(-c2nc(OCC(F)(F)F)n(Cc3ccnc(C(F)(F)F)c3)n2)cc1 [Compound 30] | 100 | 100 | 40 | 50 | 30 | 80 | 30 | 5 | 5 | 15 | 20 | 5 | 10 | 25 | 25 | 70 | 85 | 95 | 95 | 95 | Plant response rating (scale of 0 to 100 where 0 is no effect and 100 is complete control) ([9]; 62 g ai/ha): 95; Plant response rating (scale of 0 to 100 where 0 is no effect and 100 is complete control) ([9]; 125 g ai/ha): 98; Plant response rating (scale of 0 to 100 where 0 is no effect and 100 is complete control) ([9]; 250 g ai/ha): 98; Plant response rating (scale of 0 to 100 where 0 is no effect and 100 is complete control) ([10]; 31 g ai/ha): 65; Plant response rating (scale of 0 to 100 where 0 is no effect and 100 is complete control) ([10]; 62 g ai/ha): 55; Plant response rating (scale of 0 to 100 where 0 is no effect and 100 is complete control) ([10]; 125 g ai/ha): 65; Plant response rating (scale of 0 to 100 where 0 is no effect and 100 is complete control) ([10]; 250 g ai/ha): 85; Plant response rating (scale of 0 to 100 where 0 is no effect and 100 is complete control) ([11]; 31 g ai/ha): 25; Plant response rating (scale of 0 to 100 where 0 is no effect and 100 is complete control) ([11]; 62 g ai/ha): 45; Plant response rating (scale of 0 to 100 where 0 is no effect and 100 is complete control) ([11]; 125 g ai/ha): 60; Plant response rating (scale of 0 to 100 where 0 is no effect and 100 is complete control) ([11]; 250 g ai/ha): 75; Plant response rating (scale of 0 to 100 where 0 is no effect and 100 is complete control) ([12]; 31 g ai/ha): 95; Plant response rating (scale of 0 to 100 where 0 is no effect and 100 is complete control) ([12]; 62 g ai/ha): 95; Plant response rating (scale of 0 to 100 where 0 is no effect and 100 is complete control) ([12]; 125 g ai/ha): 100; Plant response rating (scale of 0 to 100 where 0 is no effect and 100 is complete control) ([12]; 250 g ai/ha): 100; Plant response rating (scale of 0 to 100 where 0 is no effect and 100 is complete control) ([13]; 31 g ai/ha): 25; Plant response rating (scale of 0 to 100 where 0 is no effect and 100 is complete control) ([13]; 62 g ai/ha): 15; Plant response rating (scale of 0 to 100 where 0 is no effect and 100 is complete control) ([13]; 125 g ai/ha): 30; Plant response rating (scale of 0 to 100 where 0 is no effect and 100 is complete control) ([13]; 250 g ai/ha): 45
FC(F)(F)COc1nc(-c2ccc(Cl)cc2)nn1Cc1ccnc(C(F)(F)F)c1 [Compound 31] | 100 | 100 | 20 | 30 | 35 | 70 | 40 | 5 | 5 | 10 | 20 | 15 | 35 | 40 | 40 | 98 | 100 | 100 | 100 | 95 | Plant response rating (scale of 0 to 100 where 0 is no effect and 100 is complete control) ([9]; 62 g ai/ha): 98; Plant response rating (scale of 0 to 100 where 0 is no effect and 100 is complete control) ([9]; 125 g ai/ha): 100; Plant response rating (scale of 0 to 100 where 0 is no effect and 100 is complete control) ([9]; 250 g ai/ha): 98; Plant response rating (scale of 0 to 100 where 0 is no effect and 100 is complete control) ([10]; 31 g ai/ha): 70; Plant response rating (scale of 0 to 100 where 0 is no effect and 100 is complete control) ([10]; 62 g ai/ha): 75; Plant response rating (scale of 0 to 100 where 0 is no effect and 100 is complete control) ([10]; 125 g ai/ha): 85; Plant response rating (scale of 0 to 100 where 0 is no effect and 100 is complete control) ([10]; 250 g ai/ha): 100; Plant response rating (scale of 0 to 100 where 0 is no effect and 100 is complete control) ([11]; 31 g ai/ha): 40; Plant response rating (scale of 0 to 100 where 0 is no effect and 100 is complete control) ([11]; 62 g ai/ha): 65; Plant response rating (scale of 0 to 100 where 0 is no effect and 100 is complete control) ([11]; 125 g ai/ha): 35; Plant response rating (scale of 0 to 100 where 0 is no effect and 100 is complete control) ([11]; 250 g ai/ha): 65; Plant response rating (scale of 0 to 100 where 0 is no effect and 100 is complete control) ([12]; 31 g ai/ha): 90; Plant response rating (scale of 0 to 100 where 0 is no effect and 100 is complete control) ([12]; 62 g ai/ha): 95; Plant response rating (scale of 0 to 100 where 0 is no effect and 100 is complete control) ([12]; 125 g ai/ha): 95; Plant response rating (scale of 0 to 100 where 0 is no effect and 100 is complete control) ([12]; 250 g ai/ha): 95; Plant response rating (scale of 0 to 100 where 0 is no effect and 100 is complete control) ([13]; 31 g ai/ha): 30; Plant response rating (scale of 0 to 100 where 0 is no effect and 100 is complete control) ([13]; 62 g ai/ha): 35; Plant response rating (scale of 0 to 100 where 0 is no effect and 100 is complete control) ([13]; 125 g ai/ha): 80; Plant response rating (scale of 0 to 100 where 0 is no effect and 100 is complete control) ([13]; 250 g ai/ha): 80

— patent US10681909B2, “Herbicidal triazoles” (FMC Corporation, priority 2014, dated 2020)
